Reference: patent US6960614B2, “Oxygenated esters of 4-lodo phenylamino benzhydroxamic acids” (Warner-Lambert Company, priority 2000, dated 2005)

Legend:
MEK = assay: Cellular Assay for Measuring MEK Inhibition (inhibition of ERK phosphorylation in C26 cells, Western blot); assay type: cell-based, murine; details: inhibition of ERK phosphorylation in murine colon 26 (C26) carcinoma cells; determined graphically from dose response curve
In short: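 Read-out is phospho-ERK1/2 by Western blot, normalized against total ERK1/2 after stripping and re-probing. Murine C26 colon carcinoma cells in exponential growth were exposed to a range of compound concentrations at 37° C before lysis.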

IC50 (MEK) | melting point | SMILES
8 nM | 205 to 207 °C (dec.) | Cc1cc(I)ccc1Nc1c(C(=O)NOCCO)cc(F)c(F)c1F [Example 1, 3,4,5-Trifluoro-N-(2-hydroxy-ethoxy)-2-(4-iodo-2-methyl-phenylamino)-benzamide]
3 nM | 181 to 183 °C | Cc1cc(I)ccc1Nc1c(C(=O)NOCCO)ccc(F)c1F [Example 2, 3,4-Difluoro-N-(2-hydroxy-ethoxy)-2-(4-iodo-2-methyl-phenylamino)-benzamide]
5 nM | 174 to 176 °C | O=C(NOCCO)c1cc(Cl)c(F)c(F)c1Nc1ccc(I)cc1 [Example 7, 5-Chloro-3,4-difluoro-N-(2-hydroxy-ethoxy)-2-(4-iodo-phenylamino)-benzamide]
0.3 nM | 117 to 119 °C | O=C(NOCCO)c1ccc(F)cc1Nc1ccc(I)cc1F [Example 8, 4-Fluoro-2-(2-fluoro-4-iodo-phenylamino)-N-(2-hydroxy-ethoxy)-benzamide]
0.3 nM | 180 to 180.5 °C | O=C(NOCCO)c1cc(Cl)c(F)c(F)c1Nc1ccc(I)cc1F [Example 10, 5-Chloro-3,4-difluoro-2-(2-fluoro-4-iodo-phenylamino)-N-(2-hydroxy-ethoxy)-benzamide]
2 nM | 189 to 190 °C | O=C(NOCCO)c1cc(Br)c(F)c(F)c1Nc1ccc(I)cc1F [Example 11, 5-Bromo-3,4-difluoro-2-(2-fluoro-4-iodo-phenylamino)-N-(2-hydroxy-ethoxy)-benzamide]
22 nM | 151.2 to 152.5 °C | Cc1cc(I)ccc1Nc1cc(F)c(F)cc1C(=O)NOCCO [Example 12, 4,5-Difluoro-N-(2-hydroxy-ethoxy)-2-(4-iodo-2-methyl-phenylamino)-benzamide]
2 nM | 208.2 to 209.6 °C | Cc1cc(I)ccc1Nc1c(C(=O)NOCCO)cc(Br)c(F)c1F [Example 13, 5-Bromo-3,4-difluoro-N-(2-hydroxy-ethoxy)-2-(4-iodo-2-methyl-phenylamino)-benzamide]
20 nM | 154.4 to 156.4 °C | Cc1cc(I)ccc1Nc1cc(F)c(Br)cc1C(=O)NOCCO [Example 16, 5-Bromo-4-fluoro-N-(2-hydroxy-ethoxy)-2-(4-iodo-2-methyl-phenylamino)-benzamide]
1 nM | 173 to 175 °C | O=C(NOCCO)c1cc(Br)c(F)cc1Nc1ccc(I)cc1F [Example 19]
3 nM | 178 to 181 °C | O=C(NOCCO)c1cc(Cl)c(F)c(F)c1Nc1ccc(I)cc1Cl [Example 20, 5-Chloro-2-(2-chloro-4-iodo-phenylamino)-3,4-difluoro-N-(2-hydroxy-ethoxy)-benzamide]
1.8 nM | 185 to 187 °C | O=C(NOCCO)c1cc(F)c(F)c(F)c1Nc1ccc(I)cc1F [Example 21, 3,4,5-Trifluoro-2-(2-fluoro-4-iodo-phenylamino)-N-(2-hydroxy-ethoxy)-benzamide]
32 nM | 190.8 to 192.5 °C | O=C(NOCCO)c1cc(F)c(F)cc1Nc1ccc(Br)cc1F [Example 23, 2-(4-Bromo-2-fluoro-phenylamino)-4,5-difluoro-N-(2-hydroxy-ethoxy)-benzamide]
26 nM | 142.1 to 142.5 °C | O=C(NOCCO)c1ccc(F)c(F)c1Nc1ccc(Cl)cc1F [Example 24, 2-(4-Chloro-2-fluoro-phenylamino)-3,4-difluoro-N-(2-hydroxy-ethoxy)-benzamide]
120 nM | 120.8 to 122.4 °C | Cc1cc(I)ccc1Nc1cc(F)ccc1C(=O)NOCCCO [Example 28, 4-Fluoro-N-(3-hydroxy-propoxy)-2-(4-iodo-2-methyl-phenylamino)-benzamide]
47 nM | 155.2 to 156.6 °C | Cc1cc(I)ccc1Nc1c(C(=O)NOCCCO)cc(Cl)c(F)c1F [Example 29, 5-Chloro-3,4-difluoro-N-(3-hydroxy-propoxy)-2-(4-iodo-2-methyl-phenylamino)-benzamide]
6 nM | 67 to 69 °C | Cc1cc(I)ccc1Nc1c(C(=O)NOCC(O)CO)cc(Cl)c(F)c1F (stereo not drawn) [Example 35, 5-Chloro-N-(2,3-dihydroxy-propoxy)-3,4-difluoro-2-(4-iodo-2-methyl-phenylamino)-benzamide]
1.8 nM | 157 to 160 °C | O=C(NOCC(O)CO)c1cc(F)c(F)c(F)c1Nc1ccc(I)cc1F (stereo not drawn) [Example 43, N-(2,3-Dihydroxy-propoxy)-3,4,5-trifluoro-2-(2-fluoro-4-iodo-phenylamino)-benzamide]
3 nM | 110 to 117 °C (dec.) | O=C(NOCC(O)CO)c1ccc(F)c(F)c1Nc1ccc(Br)cc1F (stereo not drawn) [Example 44]
19 nM | 114 to 114.9 °C | O=C(NOCC(O)CO)c1ccc(F)c(F)c1Nc1ccc(Cl)cc1F (stereo not drawn) [Example 45, 2-(4-Chloro-2-fluoro-phenylamino)-N-(2,3-dihydroxy-propoxy)-3,4-difluoro-benzamide]
1 nM | 111 to 114 °C | O=C(NOC(CO)CO)c1ccc(F)c(F)c1Nc1ccc(I)cc1F [Example 47, 3,4-Difluoro-2-(2-fluoro-4-iodo-phenylamino)-N-(2-hydroxy-1-hydroxymethyl-ethoxy)-benzamide]
1.6 nM | 173 to 175 °C | O=C(NOC(CO)CO)c1cc(Cl)c(F)c(F)c1Nc1ccc(I)cc1F [Example 48, 5-Chloro-3,4-difluoro-2-(2-fluoro-4-iodo-phenylamino)-N-(2-hydroxy-1-hydroxymethyl-ethoxy)-benzamide]

Further lines, the compound ahead of its results:

SMILES | IC50 (MEK) | melting point
O=C(NOCCO)c1ccc(F)c(F)c1Nc1ccc(I)cc1Cl [Example 3, 2-(2-Chloro-4-iodo-phenylamino)-3,4-difluoro-N-(2-hydroxy-ethoxy)-benzamide] | 4 nM | 173 to 175 °C
O=C(NOCCO)c1cc(F)c(F)c(F)c1Nc1ccc(I)cc1Cl [Example 6, 2-(2-Chloro-4-iodo-phenylamino)-3,4,5-trifluoro-N-(2-hydroxy-ethoxy)-benzamide] | 5 nM | 183 to 184.5 °C
O=C(NOCCO)c1cc(Br)c(F)c(F)c1Nc1ccc(I)cc1Cl [Example 14, 5-Bromo-2-(2-chloro-4-iodo-phenylamino)-3,4-difluoro-N-(2-hydroxy-ethoxy)-benzamide] | 2 nM | 190.2 to 200.2 °C
Cc1cc(I)ccc1Nc1c(C(=O)NOCCO)cc(Cl)c(F)c1F [Example 15] | 1 nM | 199.1 to 200.8 °C
O=C(NOCCO)c1ccc(F)c(F)c1Nc1ccc(Br)cc1F [Example 22, 2-(4-Bromo-2-fluoro-phenylamino)-3,4-difluoro-N-(2-hydroxy-ethoxy)-benzamide] | 7.7 nM | 146.1 to 146.4 °C
O=C(NOCCO)c1ccc(F)c(F)c1Nc1ccccc1F [Example 25, 3,4-Difluoro-2-(2-fluoro-phenylamino)-N-(2-hydroxy-ethoxy)-benzamide] | 52 nM | 129.6 to 130.4 °C
O=C(NOCCO)c1cc(Cl)c(F)c(F)c1Nc1ccc(F)cc1F [Example 26, 5-Chloro-2-(2,4-difluoro-phenylamino)-3,4-difluoro-N-(2-hydroxy-ethoxy)-benzamide] | 240 nM | 161.6 to 162.4 °C
O=C(NOCCO)c1ccc(F)c(F)c1Nc1ccc(F)cc1F [Example 27, 2-(2,4-Difluoro-phenylamino)-3,4-difluoro-N-(2-hydroxy-ethoxy)-benzamide] | 120 nM | 141.1 to 141.6 °C
O=C(NOCCCO)c1ccc(F)cc1Nc1ccc(I)cc1Cl [Example 30] | 130 nM | 158.8 to 160.8 °C
O=C(NOCCCCO)c1ccc(F)c(F)c1Nc1ccc(I)cc1F [Example 33] | 5 nM | 131.4 to 131.9 °C
Cc1cc(I)ccc1Nc1c(C(=O)NOCCC(O)CO)cc(Cl)c(F)c1F (stereo not drawn) [Example 36, 5-Chloro-N-(3,4-dihydroxy-butoxy)-3,4-difluoro-2-(4-iodo-2-methyl-phenylamino)-benzamide] | 53 nM | 135 to 138 °C
O=C(NOCCC(O)CO)c1cc(Cl)c(F)c(F)c1Nc1ccc(I)cc1Cl (stereo not drawn) [Example 37, 5-Chloro-2-(2-chloro-4-iodo-phenylamino)-N-(3,4-dihydroxy-butoxy)-3,4-difluoro-benzamide] | 30 nM | 146 to 148 °C
CC1(C)OCC(CONC(=O)c2ccc(F)c(F)c2Nc2ccc(I)cc2F)O1 (stereo not drawn) [Example 38, N-(2,2-Dimethyl-[1,3]dioxolan-4-ylmethoxy)-3,4-difluoro-2-(2-fluoro-4-iodo-phenylamino)-benzamide] | > 1000 nM | 114 to 115 °C
O=C(NOCC(O)CO)c1ccc(F)cc1Nc1ccc(I)cc1F (stereo not drawn) [Example 42, N-(2,3-Dihydroxy-propoxy)-4-fluoro-2-(2-fluoro-4-iodo-phenylamino)-benzamide] | 2.7 nM | 173 to 175 °C
CC1(C)OCC(ONC(=O)c2ccc(F)c(F)c2Nc2ccc(I)cc2F)CO1 [Example 46, N-(2,2-Dimethyl-[1,3]dioxan-5-yloxy)-3,4-difluoro-2-(2-fluoro-4-iodo-phenylamino)-benzamide] | 582 nM | 154 to 155 °C
O=C(NOC[C@H](O)CO)c1cc(Cl)c(F)c(F)c1Nc1ccc(I)cc1Cl [Example 51, 5-Chloro-2-(2-chloro-4-iodo-phenylamino)-N-[(R)-2,3-dihydroxy-propoxy]-3,4-difluoro-benzamide] | 3.8 nM | 155 to 156 °C
O=C(NOC[C@@H](O)CO)c1cc(Cl)c(F)c(F)c1Nc1ccc(I)cc1Cl [Example 52, 5-Chloro-2-(2-chloro-4-iodo-phenylamino)-N-[(S)-2,3-dihydroxy-propoxy]-3,4-difluoro-benzamide] | 7.8 nM | 153 to 154 °C
